In patent publication US20220170028A1, “NOVEL INTERLEUKIN-2 VARIANTS AND BIFUNCTIONAL FUSION MOLECULES THEREOF” (Cugene Inc, priority 2019, published 2022):

Columns and labels:
NK cells = test: NK cell proliferation, CFSE dilution, human PBMC; assay type: cell-based; details: 5 or 7 days incubation
Procedure: Further, P-0511 and P-0512 were tested for their ability to stimulate NK and CD8+ T cells proliferation in comparison with the wild type and benchmark molecules. Intracellular fluorescent label carboxyfluorescein diacetate succinimidyl ester (CFSE) method was utilized. Briefly, human PBMC (1×10^5 cells/well) were labeled with CFSE, plated onto 96-well plates, and incubated with increasing concentrations of different IL-2 compounds. Cells were then harvested after 5 or 7 days of incubation and stained with either anti-CD56-APC antibody for NK cells or anti-CD8-APC antibody for CD8+ T cells; and analyzed by flow cytometry. Data are expressed as a percent of divided cells and illustrated in FIG. 10A for CD8+ T cell proliferation and FIG. 10B for NK cell proliferation.

IL-2Rβ and γc complex = molecular target: T1, IL-2Rβ and γc complex (Homo sapiens, UniProt P14784+P31785); test: ELISA binding to IL-2Rβ and γc complex
T1 construct: IL-2R6-ECD (NP_000869); γc-ECD (NP_000197)
T1 sequence (P14784 27-240 limits assumed): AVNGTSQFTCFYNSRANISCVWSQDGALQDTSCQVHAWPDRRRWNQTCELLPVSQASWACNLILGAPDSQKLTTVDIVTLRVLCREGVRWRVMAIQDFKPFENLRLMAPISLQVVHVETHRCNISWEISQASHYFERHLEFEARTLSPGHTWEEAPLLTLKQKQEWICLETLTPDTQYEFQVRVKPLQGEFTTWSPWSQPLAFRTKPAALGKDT
T1 sequence (P31785 23-262 limits assumed): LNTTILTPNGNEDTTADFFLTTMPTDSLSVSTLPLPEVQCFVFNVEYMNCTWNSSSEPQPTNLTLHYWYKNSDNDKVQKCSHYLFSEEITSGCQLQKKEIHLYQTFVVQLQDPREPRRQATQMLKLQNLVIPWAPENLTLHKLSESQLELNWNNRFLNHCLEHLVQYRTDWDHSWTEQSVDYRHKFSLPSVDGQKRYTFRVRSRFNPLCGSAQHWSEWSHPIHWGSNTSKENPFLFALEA
Procedure: Briefly, non-covalent complex of IL-2R6-ECD (NP_000869) and γc-ECD (NP_000197) through heterodimeric Fc chains was coated onto the wells of Nunc Maxisorp 96-well microplates at 2 μg/well. After overnight incubation at 4° C. and blocking with superblock (ThermoFisher), 3-fold serial dilutions of IL-2 Fc fusion proteins starting at either 100 or 270 nM were added to each well at 100 Following a one-hour incubation at room temperature, biotin mouse anti-human IL-2 Ab (BD BioSciences) at 1 μg/ml was added to each well followed by incubation with HRP-Avidin (ThermoFisher) at 1 μg/ml for 1 hour. Wells were thoroughly aspirated and washed three times with PBS/0.05% Tween-20 following each step. Finally, 100 TMB substrate was added to each well; the plate was developed at room temperature in the dark for 10 minutes, and 100 of stop solution (2N Sulfuric acid, Ricca Chemical) was added. Absorbance was determined at 450 nm; curves were fit using Prism software (Graph Pad) and illustrated in FIG. 11E.

- binding to IL-2 dimeric receptor complex, EC50 (IL-2Rβ and γc complex): did not show appreciable binding
Substance: P-0511: IL-2 L19H/S125I/Q126E Fc fusion, SEQ ID NO: 213
- potency in stimulating NK cell proliferation (in words) (NK cells): on par with Benchmark-3
